Measured values published in article PMC3467072 (Nucleic Acids Research, 2012).

Legend:
Format in all cases: binding, Mycobacterium tuberculosis
[1] = test system: Rv3066 mutant W80A
[2] = test system: Rv3066 mutant N112A
[3] = test system: Rv3066 mutant W131A

CC[n+]1c(-c2ccccc2)c2cc(N)ccc2c2ccc(N)cc21 [ethidium, ethidium bromide]
three to four times: Decrease of affinity for ethidium binding, W80A versus wild-type [1] | Decrease of affinity for ethidium binding, N112A versus wild-type [2] | Decrease of affinity for ethidium binding, W131A versus wild-type [3]
